Legend:
[1] = Dissolution in warm water of particles precipitated from 10% w/v aqueous solution added dropwise to ethanol; type: physicochemical; conditions: particles/precipitate formed in ethanol from 10% w/v solution in water
Experimental: It is anticipated that such droplets may be of particular use in assays, since the saccharide would be readily soluble in water or aqueous solution. Solutions of 10% w/v of mannitol and dextran in water were prepared. The solutions were then added dropwise to ethanol. The dextran solution produced amorphous particles in ethanol. […] It is anticipated that a solution comprising both mannitol and dextran may be beneficial in that dextran appears to be suitable for forming discrete particles and mannitol may well be a suitable bulking agent. Furthermore, the mannitol may give the beads a more manageable consistency. Attempts were made to make solid beads from the polyol solutions using the apparatus of FIGS. 1-4. […] It is thought that further cooling of the apparatus is required in order to freeze the droplets. This may be achieved, for example, by improving the cooling capability of the cooler. A solution of 10% w/v of mannitol in dimethyl sulphoxide (DMSO) was prepared. […] It is therefore anticipated that droplets made from this solution would freeze using the apparatus of FIGS. 1 to 4, and that solvent may be extracted from the frozen droplets using an anti-solvent, such as ethanol. As mentioned above, it is anticipated that the saccharide-based droplets may be used in assays. […]

[2] = Entrapment of active agent in PLGA beads with different anti-solvents, amount retained by HPLC and/or NMR; type: physicochemical; set-up: % active agent retained in solid beads: concentration or dose not given beside the values; conditions: for % active agent retained in solid beads: 50:50 PLGA P2191 beads
Experimental: The entrapment of pharmaceutically active compound was investigated to determine the effect of using different anti-solvents.
The general methodology described above was used. Leuprolide acetate dissolved in DMSO/PLGA mixture at between 1-5 mg/ml of solution. The 50:50 lactide/glycolide polymer P2191 used in Example 3 was used in this Example, at a concentration of 10% w/v.
The flow rates were as used in Example 1. On entering the cooling part of the device, the functional fluid formed frozen droplets. Desolvation of the frozen droplets caused the formation of solid beads.
Various anti-solvents were investigated to determine the effect of the anti-solvent on the amount of active agent (leuprolide acetate) retained in the beads. HPLC and/or NMR were used to determine the amount of leuprolide acetate retained.

dissolution in warm water [1] | % active agent retained in solid beads ([2]; anti-solvent Ethanol and pentanol) | % active agent retained in solid beads ([2]; anti-solvent Heptanol (batch 1)) | % active agent retained in solid beads ([2]; anti-solvent Octanol:ethanol (80:20)) | % active agent retained in solid beads ([2]; anti-solvent Octanol:ethanol (90:10)) | % active agent retained in solid beads ([2]; anti-solvent Pentane) | % active agent retained in solid beads ([2]; anti-solvent Pentanol) | retention of the active ([2]; lactide/glycolide polymer as bead polymer, various C3 to C8 alcohols as anti-solvent) | Molecule
dissolved in warm water | – | – | – | – | – | – | – | OC[C@@H](O)[C@@H](O)[C@H](O)[C@H](O)CO [mannitol]
– | 63% | 78% | 76% | 84% | 94% | 92% | 60 to 95% | CCNC(=O)[C@@H]1CCCN1C(=O)[C@H](CCCNC(=N)N)NC(=O)[C@H](CC(C)C)NC(=O)[C@@H](CC(C)C)NC(=O)[C@H](Cc1ccc(O)cc1)NC(=O)[C@H](CO)NC(=O)[C@H](Cc1c[nH]c2ccccc12)NC(=O)[C@H](Cc1c[nH]cn1)NC(=O)[C@@H]1CCC(=O)N1 [leuprolide acetate, Leuprolide acetate]
readily dissolved in warm water | – | – | – | – | – | – | – | dextran

— patent US9656228B2, “Device and method for making solid beads” (Midatech Pharma (Wales) Limited, priority 2008, dated 2017)
